PMC4163382, “Symbiotic Plant Peptides Eliminate Candida albicans Both In Vitro and in an Epithelial Infection Model and Inhibit the Proliferation of Immortalized Human Cells” (BioMed Research International, 2014)
Ends that are not written are not given here. Peptide text beside a SMILES is read from it.

Assays:
[1] = tested on: C. albicans WO-1; type: cell-based, Candida albicans; conditions: for Minimal fungicidal concentration, 3 h: WO-1, 3 h; for Minimal fungicidal concentration, 24 h: WO-1, 24 h
Method: (§1) The antifungal activity of the NCR peptides against C. albicans strains and other Candida species was determined in vitro using 96-well flat bottom microtiter plates (Sarstedt). Fifty microliters of dilutions from each peptide (final concentrations in the assays ranged from 2.5 to 100 μg/mL) was added to 50 μL of 10^4 cells mL^−1 and 10^5 cells mL^−1 in LSM. The plates were incubated at 30°C and the peptide concentrations that prevented the germination of yeast cells were determined by microscopic analysis and measurement of absorbance at 600 nm with a microtiter plate reader (FLUOstar OPTIMA; BMG Labtech) after 24 and 48 hours. Minimal inhibitory concentration (MIC) was determined as the lowest concentration of the peptide at which there was no visible and measurable growth after 24 hours of incubation. To determine whether the antifungal effect was fungistatic or fungicidal, 10 μL from each treatment was dropped onto solid YPD plate after 3 and 24 hours. Plates were incubated at 30°C for 48 hours and developing colonies were observed. Minimal fungicidal concentration (MFC) was defined where no fungal growth could be observed.

[2] = tested on: C. albicans strains WO-1 and Sc 5314; experiment: Microdilution antifungal assay, summary for C. albicans; type: cell-based, Candida albicans; conditions: strains WO-1 and Sc 5314, LSM medium, microdilution plate assay
Method: as §1

[3] = tested on: C. albicans WO-1 cells; experiment: Cell permeability assay (calcein release); type: cell-based, Candida albicans; conditions: calcein-loaded C. albicans WO-1, 10 mM potassium phosphate buffer pH 7.0, peptide 50 μg/mL, fluorescence 485/530 nm
Method: Cell permeability was monitored by the release of the intracellularly accumulated dye calcein. Overnight C. albicans WO-1 cells were washed twice with and resuspended in 10 mM potassium phosphate buffer (pH = 7.0) at a concentration of 10^7 cells mL^−1. Cells were loaded with acetomethoxy-calcein at a final concentration of 5 μM for 2 hours at room temperature. Cells were washed three times to remove the extracellular dye and then 100 μL of the suspension was transferred to FIA black 96-well plates. NCR peptides were then added at a concentration of 50 mg/L, and the release of calcein (formed by the cells' esterases) was measured by its fluorescence in a microtiter plate reader (FLUOstar OPTIMA) at excitation and emission wavelengths of 485 nm and 530 nm, respectively. Calcein efflux was calculated as previously reported.

[4] = tested on: PK E6/E7 vaginal epithelial cells; experiment: MTT assay, cytotoxicity on human epithelial cells; type: cell-based; conditions: for Concentration that provoked cell death / toxicity: peptide in PBgluc 3 hours at 37°C, 24 hours regeneration in CKM, MTT 4 hours, 560 nm
Method: The immortalized human vaginal epithelial cell line PK E6/E7 [15] was cultured in serum-free CKM supplemented with 0.005 μg/mL recombinant epidermal growth factor, 50 μg/mL bovine pituitary extract, L-glutamine, and antibiotic/antimycotic solution (Life Technologies) in a CO2 thermostat at 37°C [16]. Cells at 60–70% confluence were used in subsequent experiments.
MTT Assay. PK E6/E7 vaginal epithelial cells were seeded in the wells of a 96-well plate at a density of 1 × 10^4 cells per well in a final volume of 100 μL. CKM was then aspirated and 100 μL of the appropriate peptide diluted in PBgluc was added. After 3 hours of incubation at 37°C, the peptide solution was removed, and the cells were let to regenerate in CKM for 24 hours. Then 5 mg/mL 3-[4,5-dimethylthiazol-2-yl]-2,5-diphenyltetrazolium bromide (MTT) was added to each well and the plate was placed to 37°C for 4 hours. The amount of formazan formed by the activity of the mitochondrial succinate dehydrogenase of living cells was measured by using a microtiter plate reader (FLUOstar OPTIMA) at the wavelength of 560 nm.
10 μg/mL of primycin, a macrolide lactone antibiotic complex that rapidly kills PK cells, was used as a control for cytotoxicity in both assays.
(§2) MTT assays and impedance measurements were performed in at least four technical parallels and two biological replicates; all the data are presented as mean ± standard deviation. Significance was calculated with Newman-Keuls post hoc test using the GraphPad Prism version 5 for Windows and a probability (P) value of less than 0.05 was considered significant.

[5] = tested on: PK E6/E7 vaginal epithelial cells infected with C. albicans WO-1; experiment: Vaginal epithelial cell - C. albicans coculture (RTCA); type: cell-based, human; conditions: PK E6/E7 + C. albicans WO-1, MOI of 5, 3 hours coculture then peptide 3 hours in PBgluc at both 25 and 50 μg/mL, RTCA at 40 hours
Method: PK E6/E7 cells were seeded in 96-well E-plates as described above for RTCA. On the next day, an overnight culture of C. albicans WO-1 was diluted to OD = 1 and let to grow until OD = 1.5–2. The fungal cell suspension was diluted in antibiotic/antimycotic-free CKM and was added to the human cells with a multiplicity of infection (MOI) of 5. After 3 hours of coculture at 37°C, CKM medium was replaced with NCR peptides in PBgluc. After 3 hours of incubation, peptides were removed and 200 μL of fresh antibiotic/antimycotic-free CKM was added. Subsequent measurements were performed as described above.
as §2

[6] = tested on: C. albicans strain Sc5314; type: cell-based, Candida albicans; conditions: C. albicans Sc5314, LSM medium, 30°C, 24 hours of treatment, peptide 2.5 to 100 μg/mL, microscopy and absorbance at 600 nm; mean (±spread)
Method: (§3) The C. albicans strains WO-1 and Sc5314 were maintained on YPD medium (1% (w/v) yeast extract, 2% (w/v) peptone, 2% (w/v) dextrose, 2% (w/v) agar; Beckton, Dickinson and Company). Hyphal growth was induced in complete keratinocyte medium (CKM; Life Technologies) without serum. The effect of the NCR peptides on free-living fungi was investigated either in PBgluc buffer (1 mM KH2PO4, 3 mM Na2HPO4 × 7H2O, 5% glucose, pH = 7.0) or in low-salt fungal medium (LSM) composed of 5 mM K2HPO4, 100 μM MgSO4, 10 μM FeCl, 0.2 μM CoCl2, 0.2 μM CuSO4, 4 μM Na2MoO4, 1 μM H3BO3, 0.2 μM KI, 1 μM ZnSO4, 0.2 μM MnSO4, 2% glucose, 0.2% asparagine, 40 μg/mL methionine, 4 μg/mL myo-inositol, 0.4 μg/mL biotin, 2 μg/mL thiamine-HCl, and 0.4 μg/mL pyridoxine-HCl.
as §1

[7] = tested on: C. albicans strain WO-1; type: cell-based, Candida albicans; conditions: C. albicans WO-1, LSM medium, 30°C, 24 hours of treatment, peptide 2.5 to 100 μg/mL, microscopy and absorbance at 600 nm; mean (±spread)
Method: as §3, §1

| Molecule | Minimal fungicidal concentration, 3 h [1] | Minimal fungicidal concentration, 24 h [1] | Anticandidal activity against the yeast form of growing C. albicans [2] | other results |
| --- | --- | --- | --- | --- |
| CC[C@H](C)[C@H](NC(=O)[C@H](CC(N)=O)NC(=O)[C@H](Cc1c[nH]cn1)NC(=O)[C@@H]1CCCN1C(=O)[C@@H]1CCCN1C(=O)[C@H](CCSC)NC(=O)[C@H](CCCNC(=N)N)NC(=O)[C@@H]1CCCN1C(=O)[C@H](CS)NC(=O)[C@H](CC(=O)O)NC(=O)[C@H](CCCCN)NC(=O)[C@H](CC(=O)O)NC(=O)[C@@H](NC(=O)[C@H](CC(C)C)NC(=O)[C@H](CS)NC(=O)[C@@H]1CCCN1C(=O)[C@H](CCCNC(=N)N)NC(=O)[C@H](CC(C)C)NC(=O)[C@@H](NC(=O)[C@@H](N)CCSC)[C@@H](C)O)[C@@H](C)O)C(=O)N[C@@H](CCCCN)C(=O)N[C@@H](CS)C(=O)N[C@@H](CCCNC(=N)N)C(=O)N[C@@H](CCCCN)C(=O)NCC(=O)N[C@@H](Cc1c[nH]cn1)C(=O)N[C@@H](CS)C(=O)N[C@H](C(=O)N1CCC[C@H]1C(=O)N[C@H](C(=O)NCC(=O)N[C@@H](CCCCN)C(=O)N1CCC[C@H]1C(=O)N[C@@H](Cc1ccccc1)C(=O)N[C@@H](CCCCN)C(=O)O)[C@@H](C)CC)C(C)C [NCR137] (H-MTLRPCLTDKDCPRMPPHNIKCRKGHCVPIGKPFK-OH; N-terminus and C-terminus assumed) | 20 (±2.5) μg/mL | 25 (±3) μg/mL | exhibited anticandidal activity |  |
| CC[C@H](C)[C@H](N)C(=O)N[C@@H](Cc1ccc(O)cc1)C(=O)N[C@@H](Cc1ccccc1)C(=O)N1CCC[C@H]1C(=O)N[C@H](C(=O)N[C@@H](CO)C(=O)N[C@@H](CCCNC(=N)N)C(=O)N1CCC[C@H]1C(=O)N[C@@H](CS)C(=O)N[C@H](C(=O)N[C@H](C(=O)N[C@@H](CC(=O)O)C(=O)N[C@@H](CCCCN)C(=O)N[C@@H](CC(=O)O)C(=O)N[C@@H](CS)C(=O)N1CCC[C@H]1C(=O)N[C@@H](CC(N)=O)C(=O)N[C@@H](CCSC)C(=O)N[C@@H](CCCCN)C(=O)N[C@@H](Cc1c[nH]cn1)C(=O)N[C@@H](Cc1ccc(O)cc1)C(=O)N[C@@H](CCCCN)C(=O)N[C@@H](C)C(=O)N[C@@H](CCCCN)C(=O)N[C@@H](CS)C(=O)N[C@@H](CCCNC(=N)N)C(=O)N[C@@H](CCCCN)C(=O)NCC(=O)N[C@@H](Cc1ccccc1)C(=O)N[C@@H](CS)C(=O)N[C@H](C(=O)N[C@@H](CO)C(=O)N[C@@H](CO)C(=O)N[C@@H](CCCNC(=N)N)C(=O)N[C@H](C(=O)N[C@@H](CCCNC(=N)N)C(=O)O)C(C)C)[C@@H](C)CC)[C@@H](C)O)[C@@H](C)CC)C(C)C [NCR147] (H-IYFPVSRPCITDKDCPNMKHYKAKCRKGFCISSRVR-OH; N-terminus and C-terminus assumed) | 8 (±6.5) μg/mL | 9 (±4) μg/mL | exhibited anticandidal activity |  |
| CSCC[C@H](NC(=O)[C@H](CCCCN)NC(=O)[C@H](CCCNC(=N)N)NC(=O)[C@@H]1CCCN1C(=O)[C@H](CS)NC(=O)[C@H](Cc1c[nH]cn1)NC(=O)CNC(=O)[C@@H](NC(=O)[C@H](Cc1c[nH]cn1)NC(=O)[C@H](CCCCN)NC(=O)[C@H](CS)NC(=O)CNC(=O)[C@H](CC(N)=O)NC(=O)[C@H](CCCCN)NC(=O)[C@@H](N)CCSC)[C@@H](C)O)C(=O)N[C@@H](CS)C(=O)NCC(=O)N[C@@H](C)C(=O)N[C@@H](CCCCN)C(=O)N[C@H](C(=O)N[C@H](C(=O)N[C@@H](CCCCN)C(=O)N[C@@H](CS)C(=O)N[C@@H](CCCNC(=N)N)C(=O)N[C@@H](CC(N)=O)C(=O)N[C@@H](CC(N)=O)C(=O)N[C@@H](CCCCN)C(=O)N[C@@H](CS)C(=O)N[C@@H](CCC(N)=O)C(=O)N[C@@H](CS)C(=O)N[C@H](C(=O)N[C@@H](CCC(N)=O)C(=O)N[C@@H](CC(C)C)C(=O)O)C(C)C)[C@@H](C)O)[C@@H](C)O [NCR192] (H-MKNGCKHTGHCPRKMCGAKTTKCRNNKCQCVQL-OH; N-terminus and C-terminus assumed) |  |  | exhibited anticandidal activity | Calcein (dye) efflux [3]: 22.82 ± 11.16%; Concentration that provoked cell death / toxicity [4]: 100 µg/mL; Prevention of C. albicans induced epithelial cell death [5]: could be prevented |
| EDIGHIKYCGIVDDCYKSKKPLFKIWKCVENVCVLWYK [NCR169] |  |  |  | Calcein (dye) efflux [3]: no calcein release; Concentration that provoked cell death / toxicity [4]: 100 µg/mL; Prevention of C. albicans induced epithelial cell death [5]: unable to prevent vaginal epithelial cell death |
| ITISNSSFGRIVYWNCKTDKDCKQHRGFNFRCRSGNCIPIRR (cysteines drawn unpaired) [NCR183] | 16.5 (±12) μg/mL | 15.5 (±13) μg/mL | exhibited anticandidal activity |  |
| VNDCIRIHCKDDFDCIENRLQVGCRLQREKPRCVNLVCRCLRR [NCR055, chemically synthesized mature nodule-specific cysteine-rich (NCR) peptide of Medicago truncatula] |  |  |  | Minimal inhibitory concentration, Sc5314 [6]: 50 (±3) μg/mL; Minimal inhibitory concentration, WO-1 [7]: 50 (±4) μg/mL |
| primycin [reference compound] |  |  |  | Efficiency of killing epithelial cells ([4]; 10 μg/mL, MTT assay, cytotoxic control): about 90% |
